US20100029643A1 (ASTRAZENECA AB, priority 2006, published 2010)

Biological target: T1, Edg-1/S1P1 receptor (Homo sapiens, UniProt P21453)
T1 construct: expressed in transfected cells; host or cells: human osteogenic sarcoma U2OS cells: Edg-1 Transfluor U2OS WT Clone #37 (assay I), Edg-1 Transfluor U2OS Clone #3 (assay II)
Experiment: In vitro cell based receptor activation assay - Transfluor assay (assay I or II; beta-arrestin GFP relocalization after S1P stimulation)
Conditions: at 1 μM (titrated with 3.50 μM as top concentration)
Procedure, shortened: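 U2OS cells overexpressing S1P1 with a beta-arrestin-GFP construct were pre-incubated with compound for 15 min at room temperature, then stimulated with S1P for 45 min at 37 °C. In assay I, final S1P was 375 nM or 750 nM and compound was a 9-point 3-fold series from 100 μM, in 1% DMSO. Cells were fixed and Hoechst-stained, GFP relocalization was imaged, and EC50 values were fitted.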

T1 sequence (P21453 whole entry): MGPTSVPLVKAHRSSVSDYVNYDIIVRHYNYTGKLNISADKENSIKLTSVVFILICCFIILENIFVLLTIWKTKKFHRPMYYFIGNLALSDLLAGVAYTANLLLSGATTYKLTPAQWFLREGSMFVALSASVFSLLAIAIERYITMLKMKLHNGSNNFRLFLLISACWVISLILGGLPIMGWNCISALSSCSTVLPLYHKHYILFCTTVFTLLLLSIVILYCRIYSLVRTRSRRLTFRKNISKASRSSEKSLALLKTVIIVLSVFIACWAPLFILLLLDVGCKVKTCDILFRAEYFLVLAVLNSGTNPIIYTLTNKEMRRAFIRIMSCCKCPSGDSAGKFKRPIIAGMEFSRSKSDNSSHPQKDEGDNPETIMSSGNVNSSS

| Compound | inhibition at 1 µM |
| --- | --- |
| CCn1c([C@@H](C)NS(=O)(=O)c2ccc(Cl)cc2)nc2cc(F)c(F)c(F)c21 [Example 91, (R)-4-Chloro-N-[1-(1-ethyl-5,6,7-trifluoro-1H-benzoimidazol-2-yl)-ethyl]-benzenesulfonamide] | 91.8% |

Same assay, conditions: at 3.30 μM (run with this as top concentration)

| Compound | inhibition at 3.3 µM |
| --- | --- |
| CCn1cc(S(=O)(=O)N[C@H](C)c2nc3ccc(C(F)(F)F)cc3n2CC)cn1 [Example 121, 1-ethyl-N-{(1R)-1-[1-Ethyl-6-(trifluoromethyl)-1H-benzimidazol-2-yl]ethyl}-1H-pyrazole-4-sulfonamide] | 74% |

Same assay, conditions: at 3.50 μM (titrated from top concentration 10 μM)

| Compound | inhibition at 3.5 µM |
| --- | --- |
| CCn1c([C@@H](C)NS(=O)(=O)c2cnn(C(C)C)c2C)nc2ccc(C(F)(F)F)cc21 [Example 118, N-{(1R)-1-[1-Ethyl-6-(trifluoromethyl)-1H-benzimidazol-2-yl]ethyl}-1-isopropyl-5-methyl-1H-pyrazole-4-sulfonamide] | 78% |
| CCn1c(C(C)(C)NS(=O)(=O)c2ccc(Cl)cc2)nc2ccc(C(F)(F)F)cc21 [Example 136, 4-Chloro-N-{1-[1-ethyl-6-(trifluoromethyl)-1H-benzimidazol-2-yl]-1-methylethyl}benzenesulfon-amide] | 82.9% |
| CCn1c(C(C)(C)NS(=O)(=O)c2ccc(C#N)cc2)nc2ncccc21 [Example 176, 4-Cyano-N-[1-(1-ethyl-1H-imidazo[4,.5-b]pyridin-2-yl)-1-methylethyl] benzenesulfonamide] | 36.3% |
| CCn1c([C@@H](C)NS(=O)(=O)c2ccc(Cl)cc2)nc2ccc(C(F)F)cc21 [Example 69, 4-Chloro-N-{(1R)-1-[6-(difluoromethyl)-1-ethyl-1H-benzimidazol-2-yl]ethyl}benzenesulfonamide] | 85.2% |
| CCn1c(C(C)(C)NS(=O)(=O)c2ccc(C#N)nc2)nc2cnc(C(F)(F)F)cc21 [Example 155, 6-Cyano-N-(2-(1-ethyl-6-(trifluoromethyl)-1H-imidazo[4,5-c]pyridin-2-yl)propan-2-yl)pyridine-3-sulfonamide] | 78.9% |
| CCn1c([C@@H](C)NS(=O)(=O)c2ccc(Cl)cc2)nc2cnc(OC)cc21 [Example 144, (R)-4-Chloro-N-(1-(1-ethyl-6-methoxy-1H-imidazo[4,5-c]pyridin-2-yl)ethyl)benzenesulfonamide] | 90.7% |
| CCn1c(C(C)(C)NS(=O)(=O)c2ccc(Cl)cc2)nc2ccccc21 [Example 16, 4-Chloro-N-[1-(1-ethyl-1H-benzoimidazol-2-yl)-1-methyl-ethyl]-benzenesulfonamide] | 96.2% |
| CCn1c([C@@H](C)NS(=O)(=O)c2cnc(Cl)c(Cl)c2)nc2ccc(C(F)(F)F)cc21 [Example 48, 5,6-dichloro-N-(1-(1-ethyl-6-(trifluoromethyl)-1H-benzo[d]imidazol-2-yl)ethyl)pyridine-3-sulfonamide] | 95.4% |
| CCn1c(C2(NS(=O)(=O)c3ccc(Cl)cc3)CC2)nc2ccc(C(F)(F)F)cc21 [Example 142, 4-Chloro-N-{1-[1-ethyl-6-(trifluoromethyl)-1H-benzimidazol-2-yl]cyclopropyl}benzenesulfon amide] | 80.5% |
| CCn1c([C@@H](C)NS(=O)(=O)c2ccc(F)cc2)nc2cnc(OC)cc21 [Example 132, (R)-N-(1-(1-Ethyl-6-methoxy-1H-imidazo[4,5-c]pyridin-2-yl)ethyl)-4-fluorobenzenesulfonamide] | 86.2% |
| CCn1c([C@@H](C)NS(=O)(=O)c2ccc([N+](=O)[O-])cc2)nc2ccc(C(F)(F)F)cc21 [Example 110, (R)-N-(1-(1-Ethyl-6-(trifluoromethyl)-1H-benzo[d]imidazol-2-yl)ethyl)-4-nitrobenzenesulfonamide] | 92.4% |
| CCn1c(C(C)NS(=O)(=O)c2ccc(Cl)cc2)nc2ncccc21 (stereo not shown) [Example 12, 4-Chloro-N-[1-(1-ethyl-1H-imidazo[4,5-b]pyridin-2-yl)-ethyl]-benzenesulfonamide] | 93.3% |
| CCn1c(C(C)NS(=O)(=O)c2ccc(Cl)cc2)nc2c(OC)nccc21 (stereo not shown) [Example 95, 4-chloro-N-[1-(1-ethyl-4-methoxy-1H-imidazo[4,5-c]pyridin-2-yl)ethyl]benzenesulfonamide] | 47.7% |
| CCn1c([C@@H](C)NS(=O)(=O)c2cc[n+]([O-])cc2)nc2ccc(C(F)(F)F)cc21 [Example 165, (R)-4-(N-(1-(1-Ethyl-6-(trifluoromethyl)-1H-benzo[d]imidazol-2-yl)ethyl)sulfamoyl)pyridine 1-oxide] | 75.6% |
| CCn1c([C@@H](C)NS(=O)(=O)c2ccc(C)nc2)nc2ccc(C(F)(F)F)cc21 [Example 108, (R)-N-(1-(1-Ethyl-6-(trifluoromethyl)-1H-benzo[d]imidazol-2-yl)ethyl)-6-methylpyridine-3-sulfonamide] | 91.8% |
| CCn1c([C@@H](C)NS(=O)(=O)c2ccc(F)c(C)c2)nc2ccc(C(F)(F)F)cc21 [Example 30, N-{(1R)-1-[1-Ethyl-6-(trifluoromethyl)-1H-benzimidazol-2-yl]ethyl}-4-fluoro-3-methylbenzenesulfonamide] | 94.6% |
| CCn1c(C(C)(C)NS(=O)(=O)c2ccc(C#N)cc2)nc2cnc(C3CC3)cc21 [Example 185, 4-Cyano-N-[1-(6-cyclopropyl-1-ethyl-1H-imidazo[4,5-c]pyridin-2-yl)-1-methyl-ethyl]-benzenesulfonamide] | 65% |
| CCn1c([C@@H](C)NS(=O)(=O)c2ccc(Cl)cc2)nc2cnc(C3CC3)cc21 [Example 98, 4-Chloro-N-[(1R)-1-(6-cyclopropyl-1-ethyl-1H-imidazo[4,5-c]pyridin-2-yl)ethyl]benzenesulfonamide] | 88.2% |
| CCn1c([C@@H](C)NS(=O)(=O)c2cccc(Cl)c2)nc2ccc(C(F)(F)F)cc21 [Example 123, 3-Chloro-N-{(1R)-1-[1-ethyl-6-(trifluoromethyl)-1H-benzimidazol-2-yl]ethyl}benzenesulfonamide] | 96.7% |
| CCn1c([C@@H](C)NS(=O)(=O)c2ccc(Cl)cc2)nc2ccc(C)cc21 [Example 89, 4-Chloro-N-[(1R)-1-(1-ethyl-6-methyl-1H-benzimidazol-2-yl)ethyl]benzenesulfonamide] | 90.7% |
| CCn1c([C@@H](C)NS(=O)(=O)c2ccc(C(N)=O)nc2)nc2cnc(C3CC3)cc21 [Example 174, 5-[1-(6-Cyclopropyl-1-ethyl-1H-imidazo[4,5-c]pyridin-2-yl)-ethylsulfamoyl]-pyridine-2-carboxylic acid amide] | 87.8% |
| CCn1c([C@@H](C)NS(=O)(=O)c2cncc(Br)c2)nc2ccc(C(F)(F)F)cc21 [Example 162] | 90.3% |
| CCn1c([C@@H](C)NS(=O)(=O)c2ccc(F)cc2)nc2cnccc21 [Example 104, 4-Fluoro-N-[(1R)-1-(1-ethyl-1H-imidazo[4,5-c]pyridin-2-yl)ethyl]benzenesulfonamide] | 90.3% |
| CCn1c([C@@H](C)NS(=O)(=O)c2ccc(Cl)cc2)nc2cnc(C(F)(F)F)cc21 [Example 147, (R)-4-Chloro-N-(1-(1-ethyl-6-(trifluoromethyl)-1H-imidazo[4,5-c]pyridin-2-yl)ethyl)benzenesulfonamide] | 95.9% |
| CCn1c([C@@H](C)NS(=O)(=O)c2ccc(F)nc2)nc2ccc(C(F)(F)F)cc21 [Example 107, (R)-N-(1-(1-Ethyl-6-(trifluoromethyl)-1H-benzo[d]imidazol-2-yl)ethyl)-6-fluoropyridine-3-sulfonamide] | 92.5% |

Same assay, conditions: at 3.70 μM (titrated from top concentration 100 μM)

| Compound | inhibition at 3.7 µM |
| --- | --- |
| CC(NS(=O)(=O)c1ccc(Cl)cc1)c1nc2ccccc2n1CC1CC1 (stereo not shown) [Example 18, 4-Chloro-N-{1-[1-(cyclopropylmethyl)-1H-benzimidazol-2-yl]ethyl}-benzenesulfonamide] | 100% |
| CC(C)Cn1c(C(C)NS(=O)(=O)c2ccc(Cl)cc2)nc2ccccc21 (stereo not shown) [Example 19, 4-Chloro-N-[1-(1-isobutyl-1H-benzimidazol-2-yl)ethyl]-benzenesulfonamide] | 16.4% |
| CCn1c([C@@H](C)NS(=O)(=O)c2ccc(Cl)cc2)nc2cccc(OC)c21 [Example 11, 4-Chloro-N-[(1R)-1-(1-ethyl-7-methoxy-1H-benzimidazol-2-yl)ethyl]benzene-sulfonamide] | 82% |
| CCn1c([C@@H](C)NS(=O)(=O)C2CCCC2)nc2ccc(C(F)(F)F)cc21 [Example 28, N-{(1R)-1-[1-Ethyl-6-(trifluoromethyl)-1H-benzimidazol-2-yl]ethyl} cyclopentanesulfonamide] | 66.1% |
| CCCn1cc(S(=O)(=O)N[C@H](C)c2nc3ccc(C(F)(F)F)cc3n2CC)c(C)n1 [Example 53, N-{(1R)-1-[1-Ethyl-6-(trifluoromethyl)-1H-benzimidazol-2-yl]ethyl}-3-methyl-1-propyl-1H-pyrazole-4-sulfonamide] | 84.5% |
| CCn1c([C@@H](C)NS(=O)(=O)c2ccc(Cl)cc2)nc2cc(C)c(Cl)cc21 [Example 59, 4-Chloro-N-[(1R)-1-(6-chloro-1-ethyl-5-methyl-1H-benzimidazol-2-yl)ethyl]benzenesulfonamide] | 78.2% |
| CCn1c([C@@H](C)NS(=O)(=O)c2ccc(Cl)cc2)nc2nnc(Cl)cc21 [Example 87, 4-Chloro-N-[(1R)-1-(3-chloro-5-ethyl-5H-imidazo[4,5-c]pyridazin-6-yl)ethyl]benzenesulfonamide] | 62.4% |
| CCn1c([C@@H](C)NS(=O)(=O)c2ccc(Cl)cc2)nc2cc(Cl)c(Cl)cc21 [Example 22, (R)-4-Chloro-N-[1-(5,6-dichloro-1-ethyl-1H-benzoimidazol-2-yl)ethyl]-benzenesulfonamide] | 63.5% |

Same assay, conditions: one or the other of the two Transfluor assays; Edg-1 Transfluor U2OS cells, S1P ligand

| Compound | EC50 |
| --- | --- |
| CC(NS(=O)(=O)c1ccc(Cl)cc1)c1nc2ccccc2n1CC1CC1 (stereo not shown) [Example 18, 4-Chloro-N-{1-[1-(cyclopropylmethyl)-1H-benzimidazol-2-yl]ethyl}-benzenesulfonamide] | 0.896 µM |
| CC(C)Cn1c(C(C)NS(=O)(=O)c2ccc(Cl)cc2)nc2ccccc21 (stereo not shown) [Example 19, 4-Chloro-N-[1-(1-isobutyl-1H-benzimidazol-2-yl)ethyl]-benzenesulfonamide] | 10.3 µM |
